The source of these data is ChEMBL document CHEMBL1201862, “PubChem BioAssay data set” (2004).

Structures are written as SMILES.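 Values below derive from 48-hour exposures of cells grown in 96-well plates, with endpoints linearly interpolated between the two concentrations bracketing the appropriate inhibition level. Abbreviation: GI50, concentration required for 50% inhibition of growth.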 The source made the active and inactive calls. Rule as the data show it: active = GI50 up to about 1.1 µM and inactive = higher.

Assay in all cases: NCI tumour cell line growth inhibition, 48 h
For test [1], the system named is NCI/ADR-RES.
Test [2] concerns NCI-H23.
For test [3], the system named is U-251.
Test [4] relates to CCRF-CEM.
In test [5] the test system is HL-60.
Test [6] concerns MDA-N.
For test [7], the system named is M14.
The test system of test [8] is ACHN.
Test [9] has as its system SN12C.
In test [10] the test system is SK-MEL-5.
The test system of test [11] is HCT-116.
The test system of test [12] is SK-MEL-28.
Test [13] deals with HCC 2998.
In test [14] the test system is A549.
Test [15] has as its system HT-29.
The subject of test [16] is NCI-H460.
In test [17] the test system is NCI-H226.
Test [18] deals with SNB-75.

`COc1ccc(CCN2C(=O)CC34C=CC(CC3C2=O)O4)cc1OC` (stereo not given): the GI50 in test [1], in test [2], in [3], in test [4], in test [5] and in test [6] was > 100 µM (inactive) in each case. Moreover, the GI50 in [7], in test [8], in test [9], in test [10], in test [11] and in [12] was > 100 µM (inactive) in each case. Further, the GI50 in test [13], in test [14] and in test [15] was > 100 µM (inactive) throughout.

On to `CCOC(=O)Cc1nnc2c(-c3ccccc3)nc3ccccc3n12`, for which the GI50 in [16] is > 100 µM (inactive); in test [1], 90.6 µM (inactive); in test [2] it was 43.3 µM (inactive); in test [3], 22.4 µM (inactive); in test [4], > 100 µM (inactive); in [5], > 100 µM (inactive). The GI50 in test [6] is > 100 µM (inactive); in test [7], > 100 µM (inactive); in test [8], 19.8 µM (inactive); in test [17], > 100 µM (inactive); in [9], 53.8 µM (inactive); in [10] it was > 100 µM (inactive). The GI50 was 35.4 µM (inactive) in test [11]; > 100 µM (inactive) in test [12]; 15.7 µM (inactive) in [13]; > 100 µM (inactive) in test [14]; > 100 µM (inactive) in test [15].

For `N/C(=N\N=C\c1nc2ccccc2o1)c1cnccn1`, the GI50 in test [16] is 72.9 µM (inactive); in [1], > 100 µM (inactive); in [2] it was 83.8 µM (inactive); in test [3], 35.6 µM (inactive); in test [4], > 100 µM (inactive); in test [18] it was 16.4 µM (inactive). Moreover, the GI50 was 49.9 µM (inactive) in [5]; > 100 µM (inactive) in test [6]; > 100 µM (inactive) in [7]; 70.8 µM (inactive) in test [8]; > 100 µM (inactive) in [17]; > 100 µM (inactive) in test [9]. Further, the GI50 in test [10], in test [11], in test [12], in test [14] and in test [15] was > 100 µM (inactive) each time.

For the compound `CC(=O)c1c2c(cc3c1CC1(Cc4cc5c(cc4C1)CCC5)C3)CCC2`, the GI50 in test [16], in test [1], in [2], in [3], in test [4] and in test [18] was > 100 µM (inactive) each time. Besides, the GI50 was > 100 µM (inactive) in test [5]; > 100 µM (inactive) in test [6]; > 100 µM (inactive) in test [7]; > 100 µM (inactive) in test [8]; > 100 µM (inactive) in test [10]; 75 µM (inactive) in [11]. Also, the GI50 in test [12] was > 100 µM (inactive); in test [13], > 100 µM (inactive); in test [14] it was > 100 µM (inactive); in test [15], 78.2 µM (inactive).

In the case of `COC(=O)C1C(=O)C=CN([C@H](C)c2ccccc2)[C@@H]1Cc1ccc(OC)c(OCc2ccccc2)c1I` (stereo not given in full), the GI50 in [16] was 15.5 µM (inactive); in test [1] it was 11.1 µM (inactive); in test [2] it was 17 µM (inactive); in test [3], 17.5 µM (inactive); in test [4] it was 24.5 µM (inactive); in [5], 17.3 µM (inactive). The GI50 is 15.6 µM (inactive) in test [6]; 14.5 µM (inactive) in [7]; 23.2 µM (inactive) in [8]; 15.8 µM (inactive) in [17]; 14.3 µM (inactive) in [9]; 13.5 µM (inactive) in [10]. The GI50 in test [11] is 11.7 µM (inactive); in test [12], 40.6 µM (inactive); in test [13], 14.3 µM (inactive); in test [14] it was 15.6 µM (inactive); in test [15], 10 µM (inactive).

Take `CN1C(=O)C(c2c[nH]c3ccccc23)N(C)C(=O)C1c1c[nH]c2ccccc12` (stereo not given): the GI50 was > 100 µM (inactive) in test [16]; > 100 µM (inactive) in [1]; > 100 µM (inactive) in test [2]; > 100 µM (inactive) in [3]; > 100 µM (inactive) in test [4]; 33.8 µM (inactive) in [18]. For the same compound, the GI50 is > 100 µM (inactive) in test [5]; > 100 µM (inactive) in [6]; > 100 µM (inactive) in test [7]; 72.8 µM (inactive) in test [8]; > 100 µM (inactive) in test [9]; > 100 µM (inactive) in test [10]. In addition, the GI50 in [11], in test [12], in test [13], in [14] and in [15] was > 100 µM (inactive) in each case.

On to `Cn1c(=O)c2ccccc2c2ccccc21`, for which the GI50 was 29.3 µM (inactive) in [16]; 37 µM (inactive) in [1]; 69.7 µM (inactive) in test [2]; 57.1 µM (inactive) in test [3]; 66.5 µM (inactive) in test [4]; 44.9 µM (inactive) in test [18]. Moreover, the GI50 is 47.8 µM (inactive) in test [6]; 49.7 µM (inactive) in test [7]; 33 µM (inactive) in test [8]; 32.3 µM (inactive) in test [17]; 49.2 µM (inactive) in test [9]; 30.3 µM (inactive) in [10]. Besides, the GI50 in test [11] is 45 µM (inactive); in test [12], 85.5 µM (inactive); in [13], 56.8 µM (inactive); in test [14] it was 53.8 µM (inactive); in test [15], 40.2 µM (inactive).

Take `NCC(O)CNCC/C=C\C/C=C\C/C=C\C/C=C\C/C=C\C/C=C\CCCCC/C=C\CCNCC(O)CN` (stereo not given): the GI50 in test [16] was 1.82 µM (inactive); in [1], 1.47 µM (inactive); in [3], 1.72 µM (inactive); in test [18], 1.73 µM (inactive); in test [5], 0.453 µM (active); in [6] it was 1.67 µM (inactive). Moreover, the GI50 in test [7] was 1.94 µM (inactive); in test [8] it was 1.8 µM (inactive); in test [17], 2.64 µM (inactive); in test [9], 1.64 µM (inactive); in test [11] it was 1.78 µM (inactive); in test [12], 3.4 µM (inactive). Besides, the GI50 in test [14] was 1.85 µM (inactive); in test [15], 1.75 µM (inactive).

As to `CSc1cc(Cl)c(C(=O)Nc2ccccc2)cc1S(=O)(=O)n1ccnc1O`, the GI50 in [16], in test [1], in test [2], in [3], in test [4] and in test [18] was > 100 µM (inactive) throughout. In addition, the GI50 in test [5], in test [6], in [7], in test [8], in [9] and in [10] was > 100 µM (inactive) in each case. The GI50 in [11], in test [12], in [13], in test [14] and in test [15] was > 100 µM (inactive) throughout.

Regarding `Clc1ccc(C(OCn2ccnc2)c2nc3ccccc3[nH]2)c(Cl)c1` (stereo not given), the GI50 in test [16] is 24.5 µM (inactive); in [1] it was 56.2 µM (inactive); in test [2], 32.2 µM (inactive); in [3], 31.4 µM (inactive); in test [4], 38.6 µM (inactive); in test [18], 28.9 µM (inactive). The GI50 was 22.1 µM (inactive) in test [5]; 37.5 µM (inactive) in test [6]; 54.2 µM (inactive) in test [7]; 26.4 µM (inactive) in test [8]; 61.4 µM (inactive) in test [9]; 16.2 µM (inactive) in test [10]. The GI50 was 33.8 µM (inactive) in test [11]; 48.3 µM (inactive) in test [12]; 45.5 µM (inactive) in test [13]; 43.4 µM (inactive) in test [14]; 53.3 µM (inactive) in [15].

As to `N#CCOc1cccc(C2(N3CC=CCC3)CCCCC2)c1`, the GI50 was > 100 µM (inactive) in test [1]; > 100 µM (inactive) in test [2]; > 100 µM (inactive) in [3]; 42.3 µM (inactive) in [4]; 83.2 µM (inactive) in [5]; > 100 µM (inactive) in test [6]. The GI50 in [7], in [8], in test [17], in test [9], in test [10] and in [11] was > 100 µM (inactive) throughout. The GI50 in test [12], in test [14] and in test [15] was > 100 µM (inactive) throughout.

On to `CC[C@H](C)[C@H](NC(=O)[C@@]1(O)[C@H](O)[C@]2(CC)C=CCN3CC[C@@]4(c5cc(Br)c(OC)cc5N(C)[C@@H]14)[C@@H]32)C(=O)OC`, for which the GI50 was 24.3 µM (inactive) in test [16]; 57.8 µM (inactive) in [1]; 86.1 µM (inactive) in [2]; 27.8 µM (inactive) in test [3]; 27.8 µM (inactive) in test [4]; 37.8 µM (inactive) in test [5]. The GI50 was 25.6 µM (inactive) in [6]; 22.1 µM (inactive) in test [7]; 24.8 µM (inactive) in test [8]; 27.2 µM (inactive) in test [9]; 24.4 µM (inactive) in [10]; 25.5 µM (inactive) in test [11]. The GI50 in [12] is 13.2 µM (inactive); in test [13], 23.8 µM (inactive); in test [14] it was 20.5 µM (inactive); in [15], 11.6 µM (inactive).
